Patent US20030055065A1, “Tricyclic amide and urea compounds useful for inhibition of G-protein function and for treatment of proliferative diseases” (priority 1993, published 2003)
Where “and” joins values, the source holds several entries; their conditions need not be identical. Identical values can stand only once. Like-named read-outs stand apart in the source and are kept apart here. Marks after values point to notes of the source that are not given here.

Tests used:
[1] = molecular target: T1, farnesyl protein transferase (FPT), partially purified from rat brain (Rattus norvegicus, UniProt Q02293+Q04631); assay: Inhibition of farnesyl protein transferase (transfer of [3H]farnesyl to Ras-CVLS); type: biochemical
T1 construct: were partially purified from rat brain by ammonium sulfate fractionation followed by Q-Sepharose
Summary of the method: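 Partially purified farnesyl protein transferase with His6-tagged val12-Ha-Ras-CVLS substrate and [3H]farnesyl pyrophosphate, 30 min at room temperature. Stopped with SDS/TCA, precipitated Ras collected on GF/C filters; percent inhibition relative to DMSO vehicle control.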

[2] = tested on: Ras-CVLS processing in COS monkey kidney cells; assay: COS cell assay: Ras-CVLS processing (Western blot); type: cell-based; conditions: COS cells, read-out: Inhibition of Ras Processing IC50
Summary of the method: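 COS cells electroporated with Ras-CVLS (farnesyl transferase substrate) cDNA, with drug-containing fresh medium added at 24 h and cells examined at 48 h. TCA-precipitated cellular protein was resolved by SDS gel and immunoblotted with anti-p21 Ras monoclonal and HRP anti-rat IgG to monitor Ras processing.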

[3] = tested on: T24-BAG4 human bladder carcinoma cells expressing an activated H-ras gene; assay: Cell Mat Assay: tumor cell colony inhibition (tIC50); type: cell-based; conditions: inhibition of tumor cell growth
Summary of the method: (§1)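 Serial compound dilutions added 24 h after planting T24-BAG4 cells onto a mat of normal cells, then 14 d colony growth; monolayers glutaraldehyde-fixed and tumor cells X-Gal stained. tIC50 and mIC50 from microscope counts of colonies, cells per colony and mat cell density.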

[4] = tested on: Normal human HEPM fibroblasts; assay: Cell Mat Assay: density of mat cells (mIC50); type: cell-based
Summary of the method: as §1

[5] = molecular target: T2, geranylgeranyl protein transferase (GGPT) I (Rattus norvegicus, UniProt P53610+Q04631); assay: Inhibition of geranylgeranyl protein transferase I (Ras-CVLL as acceptor); type: biochemical; conditions: for selective for FPT inhibition (over GGPT): FPT versus GGPT; for IC50: enzyme inhibition
T2 construct: were partially purified from rat brain by ammonium sulfate fractionation followed by Q-Sepharose
Summary of the method: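 Rat brain GGPT I, partially purified by ammonium sulfate fractionation and anion exchange, was assayed with [3H]geranylgeranyl pyrophosphate as isoprenoid donor. The acceptor was E. coli-expressed His6-tagged val12-Ha-Ras ending in CVLL. The protocol otherwise matched the farnesyl protein transferase assay.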

[6] = tested on: C-f-1 (mouse fibroblast transformed with c-fos oncogene); assay: In vivo anti-tumor study, C-f-1; set-up: species or system athymic nu/nu female mice; concentration or dose not given beside the values; conditions: s.c. tumor C-f-1, BID
[7] = tested on: SW620 (human colon adenocarcinoma [lymph node metastasis]); assay: In vivo anti-tumor study, SW620; set-up: species or system athymic nu/nu female mice; percent inhibition of tumor growth relative to vehicle controls: concentration or dose not given beside the values; conditions: for inhibition in vivo at 100 mg/kg: Mus musculus; for inhibition in vivo at 100 mg/kg / Average % Tumor Inhibition: SW620 tumor, 10/wk; for percent inhibition of tumor growth relative to vehicle controls: s.c. tumor SW-620, BID
[8] = tested on: A431 (human epidermal carcinoma); assay: In vivo anti-tumor study, A431; set-up: species or system athymic nu/nu female mice; concentration or dose not given beside the values; conditions: s.c. tumor A431, BID
[9] = tested on: M27 (mouse Lewis lung carcinoma); assay: In vivo anti-tumor study, M27; set-up: species or system athymic nu/nu female mice; conditions: po; for Average % Tumor Inhibition: M27 tumor, 100 MPK; for percent inhibition of tumor growth relative to vehicle controls: s.c. tumor M27, BID, 1-7, ×4
Excerpt: In vivo Anti-tumor Studies

[10] = Ras-CVLS farnesylation, partially purified rat brain FPT, read-out: FPT IC50
[11] = enzyme inhibition, read-out: FPT IC50

T2 sequence (P53610 whole entry, one chain of several): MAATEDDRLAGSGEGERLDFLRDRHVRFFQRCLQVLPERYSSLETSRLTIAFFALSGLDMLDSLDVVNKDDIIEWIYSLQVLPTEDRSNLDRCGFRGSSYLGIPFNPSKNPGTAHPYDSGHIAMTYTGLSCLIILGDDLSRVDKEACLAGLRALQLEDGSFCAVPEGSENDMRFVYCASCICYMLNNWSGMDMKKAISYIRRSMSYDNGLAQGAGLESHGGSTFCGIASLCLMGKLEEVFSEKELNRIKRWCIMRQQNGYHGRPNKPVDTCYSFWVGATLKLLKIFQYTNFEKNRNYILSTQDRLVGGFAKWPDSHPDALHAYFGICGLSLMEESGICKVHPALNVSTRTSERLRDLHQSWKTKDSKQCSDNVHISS
T1 sequence (Q02293 whole entry, one chain of several): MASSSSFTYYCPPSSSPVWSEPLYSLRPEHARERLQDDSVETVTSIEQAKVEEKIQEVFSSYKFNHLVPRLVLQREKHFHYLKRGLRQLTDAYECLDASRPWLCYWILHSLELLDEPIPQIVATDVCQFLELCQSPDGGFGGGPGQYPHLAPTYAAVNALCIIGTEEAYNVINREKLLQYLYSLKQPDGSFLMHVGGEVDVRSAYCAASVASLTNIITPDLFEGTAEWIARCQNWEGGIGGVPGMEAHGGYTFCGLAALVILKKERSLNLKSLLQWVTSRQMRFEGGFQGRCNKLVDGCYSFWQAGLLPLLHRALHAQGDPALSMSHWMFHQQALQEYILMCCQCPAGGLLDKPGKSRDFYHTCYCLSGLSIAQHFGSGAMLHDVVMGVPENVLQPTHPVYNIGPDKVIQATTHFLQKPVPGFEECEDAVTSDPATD

| SMILES | IC50 [1, 10] | IC50 [1, 11] [µM] | IC50 ([2]; Primates, COS) [µM] | IC50 ([3]; Homo sapiens) [µM] | IC50 ([4]; Homo sapiens, Fibroblast) [µM] | IC50 [5] [µM] | percent inhibition of tumor growth relative to vehicle controls ([6]; po, 1-5, ×4) [%] | inhibition in vivo at 100 mg/kg ([7]; SW-620, po, 100 MPK, po, x4) [%] | percent inhibition of tumor growth relative to vehicle controls ([7]; po, 1-5, ×4) [%] | further results |
| --- | --- | --- | --- | --- | --- | --- | --- | --- | --- | --- |
| O=C(Cc1cccnc1)N1CCC(=C2c3ccc(Cl)cc3CCc3cccnc32)CC1 [Example 2, 8-chloro-11-[1-(1-(3-pyridyl)-methylcarbonyl)-4-piperidylidene]-6,11-dihydro-5H-benzo[5,6]cyclohepta[1,2-b]-pyridine] | 0.47 µM | 0.47 | 3.7 | 25 | > 50 | > 46 | 9.6 | 1 | 33.5 | selective for FPT inhibition (over GGPT) [5]: at least 98 fold; inhibition at 46 µM ([5]; at 46 μM, Ras-CVLL as isoprenoid acceptor): 25%; percent inhibition of tumor growth relative to vehicle controls ([6]; ip, 1-5, ×2): 8%; inhibition in vivo at 100 mg/kg ([7]; SW-620, ip, 100 MPK, ip, x2): 0%; inhibition in vivo at 100 mg/kg ([7]; SW-620, po, 100 MPK, po, x2): 0%; percent inhibition of tumor growth relative to vehicle controls ([7]; ip, 1-5, ×4): 0%; percent inhibition of tumor growth relative to vehicle controls ([7]; po, 1-5, ×2): 46.1%; percent inhibition of tumor growth relative to vehicle controls ([8]; po, 1-5, ×4): 45.6% and 36.5%; Average % Tumor Inhibition ([9]; 14/wk, x4): 45%; percent inhibition of tumor growth relative to vehicle controls [9]: 61.2% |
| O=C(c1ccc(O)cc1)N1CCC(=C2c3ccc(Cl)cc3CCc3cccnc32)CC1 [Example 7] | 2.3 µM | 2.3 |  | 50 | 100 | > 45 | 39.3 | 0 | 0 | percent inhibition of tumor growth relative to vehicle controls ([6]; ip, 1-5, ×2): 39.7%; inhibition in vivo at 100 mg/kg ([7]; SW-620, po, 100 MPK, po, x2): 13%; percent inhibition of tumor growth relative to vehicle controls ([7]; ip, 1-5, ×4): 19.6%; percent inhibition of tumor growth relative to vehicle controls ([7]; po, 1-5, ×2): 48.6%; percent inhibition of tumor growth relative to vehicle controls ([8]; ip, 1-5, ×4): 0%; percent inhibition of tumor growth relative to vehicle controls ([8]; po, 1-5, ×4): 29.1%; Average % Tumor Inhibition ([9]; 14/wk, x4): 40%; percent inhibition of tumor growth relative to vehicle controls [9]: 58.2% |
| O=C(Cc1cccnc1)N1CCC(C2c3ccc(Cl)cc3CCc3cccnc32)CC1 (stereo not drawn) [Example 82A, 4-(8-Chloro-6,11-dihydro-5H-benzo-[5,6]cyclohepta(1,2-b]pyridin-11-yl)-1-[(3-pyridinyl)acetyl]-piperidine] |  |  |  |  |  |  |  | 27 |  | melting point: 81.7 to 82 °C |
| O=C(C(c1ccccc1)c1ccccc1)N1CCN(C2c3ccc(Cl)cc3CCc3cccnc32)CC1 (stereo not drawn) [Example 79] | 2.5 µM | 2.5 | 5.1 | 12.5 | > 50 |  | 25 |  | 26.7 | percent inhibition of tumor growth relative to vehicle controls ([8]; po, 1-6, ×4): 0% |
| O=C(Cc1ccc(O)c(O)c1)N1CCC(=C2c3ccc(Cl)cc3CCc3cccnc32)CC1 [Example 127] | 3.5 µM and 2.7 µM |  |  | 6.3 | > 50 |  |  | 25 |  | Average % Tumor Inhibition ([9]; 10/wk, x3): 22% |
| CC(=O)N1CCC(C(=O)N2CCN(C3c4ccc(Cl)cc4CCc4cccnc43)CC2)CC1 (stereo not drawn) [Example 192] | 1.24 µM |  | 4.9 | 25 | > 50 | > 43 |  | 29 |  | IC50 ([3]; listed as 192 (5.65)): 37 µM |
| O=C(Cc1ccncc1)N1CCN(C2c3ccc(Cl)cc3CCc3cccnc32)CC1 (stereo not drawn) [Example 75] |  |  |  | 2.5 | > 50 |  | 20 |  | 43.4 | IC50 ([1]; FPT IC50, Ras-CVLS farnesylation, partially purified rat brain FPT): 0.36 µM and 0.16 µM; percent inhibition of tumor growth relative to vehicle controls ([8]; po, 1-6, ×4): 34.5%; Average % Tumor Inhibition ([9]; 10/wk, x4): 0% |
| Cc1ccc(CC(=O)N2CCC(=C3c4ccc(Cl)cc4CCc4cccnc43)CC2)cc1 [Example 47] | 1.3 µM and 1.01 µM |  |  |  |  |  |  |  |  | IC50 [2]: 11.1 µM; IC50 [3]: 12.5 µM; IC50 [4]: > 50 µM; Average % Tumor Inhibition ([9]; 10/wk, x3): 19% |
| S=C(c1ccncc1)N1CCC(=C2c3ccc(Cl)cc3CCc3cccnc32)CC1 [Example 88] | 1 µM |  |  |  |  |  |  |  |  | IC50 [2]: > 12 µM; IC50 [4]: > 50 µM; Average % Tumor Inhibition ([7]; 25 MPK, po, x4, listed as Ex. 88, 25 mg/kg): 4% and 0%; Average % Tumor Inhibition ([7]; 50 MPK, po, x4): 30%; Average % Tumor Inhibition ([7]; 100 MPK, po, x4, listed as Ex. 88, 100 mg/kg): 43.25* % and 38% and 37% and 27.4* % and 28%; Average % Tumor Inhibition ([9]; 10/wk, x4): 19% |
| O=C(Cc1cccc([N+](=O)[O-])c1)N1CCC(=C2c3ccc(Cl)cc3CCc3cccnc32)CC1 [Example 45] | 1.2 µM and 0.87 µM |  | 4.2 | 6.3 | > 50 |  |  |  |  | Average % Tumor Inhibition ([9]; 10/wk, x3): 0%; melting point: 94.3 to 95.5 °C |
| O=C(CN1C(=O)c2ccccc2C1=O)N1CCC(=C2c3ccc(Cl)cc3CCc3cccnc32)CC1 [Example 3] | 0.66 µM | 0.66 | > 10 | > 50 | > 50 | > 39 | 0 |  |  | selective for FPT inhibition (over GGPT) [5]: at least 59 fold; inhibition at 39 µM ([5]; at 39 μM, Ras-CVLL as isoprenoid acceptor): 3%; percent inhibition of tumor growth relative to vehicle controls ([6]; ip, 1-5, ×2): 8%; percent inhibition of tumor growth relative to vehicle controls ([7]; ip, 1-5, ×4): 27%; percent inhibition of tumor growth relative to vehicle controls ([7]; po, 1-5, ×2): 15.8%; percent inhibition of tumor growth relative to vehicle controls ([8]; ip, 1-5, ×4): 0%; percent inhibition of tumor growth relative to vehicle controls [9]: 27.3% |
